Molecular target: Tubulin beta-2B chain (UniProt Q6B856)
Test: Binding affinity against tubulin from goat brain relative to colchicine

Tubulin beta-2B chain, sequence (Q6B856 whole entry): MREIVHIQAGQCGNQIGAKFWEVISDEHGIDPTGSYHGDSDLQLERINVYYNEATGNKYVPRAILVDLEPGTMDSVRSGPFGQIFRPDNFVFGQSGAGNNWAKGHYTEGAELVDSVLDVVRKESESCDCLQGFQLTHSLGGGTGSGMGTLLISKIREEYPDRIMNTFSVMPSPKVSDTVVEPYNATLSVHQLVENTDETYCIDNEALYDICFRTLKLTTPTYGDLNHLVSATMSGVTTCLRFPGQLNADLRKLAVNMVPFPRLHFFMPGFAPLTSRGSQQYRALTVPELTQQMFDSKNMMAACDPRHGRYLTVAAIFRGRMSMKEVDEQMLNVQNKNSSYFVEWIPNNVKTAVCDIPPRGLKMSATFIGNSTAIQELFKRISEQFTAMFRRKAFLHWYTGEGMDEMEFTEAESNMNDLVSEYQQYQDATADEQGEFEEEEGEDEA

Row | Ki | Compound
1 | 14 µM | COc1ccc(S(=O)(=O)Nc2cccc3cc[nH]c23)cc1 [N-(1H-Indol-7-yl)-4-methoxy-benzenesulfonamide]
2 | 28 µM | COc1ccc(S(=O)(=O)Nc2cccc3cc(Cl)[nH]c23)cc1 [N-(2-Chloro-1H-indol-7-yl)-4-methoxy-benzenesulfonamide]
3 | 14 µM | COc1ccc(S(=O)(=O)Nc2cccc3c(Cl)c[nH]c23)cc1 [N-(3-Chloro-1H-indol-7-yl)-4-methoxy-benzenesulfonamide]
4 | 14 µM | COc1ccc(S(=O)(=O)Nc2ccc(Cl)c3cc[nH]c23)cc1 [N-(4-Chloro-1H-indol-7-yl)-4-methoxy-benzenesulfonamide]
5 | 7 µM | COc1ccc(S(=O)(=O)Nc2cc(Cl)cc3cc[nH]c23)cc1 [N-(5-Chloro-1H-indol-7-yl)-4-methoxy-benzenesulfonamide]
